Laboratory results reported in patent US11746116B2, “Antibiotic resistance breakers” (KING'S COLLEGE LONDON, priority 2017, dated 2023).
≈ marks a conversion by molar mass, not a printed value. Read-outs that look alike come from different tables or passages of the source.

Tested on: extended bacterial panel
Assay: MIC against an extended bacterial panel (Table 15)
Assay type: cell-based

Compound: CC(=O)NC[C@H]1CN(c2ccc(N3CCOCC3)c(F)c2)C(=O)O1 [Linezolid]
- MIC (Staphylococcus aureus, ATCC 700699 / MRSA / VISA, Staphylococcus aureus Mu50, ATCC 700699, MRSA/VISA, read-out: MIC): 2 µg/mL (≈ 5.93 µM)
- MIC (Staphylococcus aureus, MRSA / NRS 3 / VISA, Staphylococcus aureus NRS3, MRSA/VISA, read-out: MIC): 1 µg/mL (≈ 2.96 µM)
- MIC (Staphylococcus aureus, MRSA / NRS 17 / VISA, Staphylococcus aureus NRS17, MRSA/VISA, read-out: MIC): 2 µg/mL (≈ 5.93 µM)
- MIC (Staphylococcus aureus, MRSA / NRS 22 / USA600 / VISA, Staphylococcus aureus NRS22, USA600 MRSA/VISA, read-out: MIC): 4 µg/mL (≈ 11.9 µM)
- MIC (Staphylococcus aureus, MRSA / NRS 56 / VISA, Staphylococcus aureus NRS56, MRSA/VISA, read-out: MIC): 2 µg/mL (≈ 5.93 µM)
- MIC (Staphylococcus aureus, MRSA / NRS 100, Staphylococcus aureus COL, NRS100, MRSA, read-out: MIC): 2 µg/mL (≈ 5.93 µM)
- MIC (Staphylococcus aureus, MRSA / NRS 269, Staphylococcus aureus NRS269, MRSA TGC-NS, read-out: MIC): 2 µg/mL (≈ 5.93 µM)
- MIC (Staphylococcus aureus, MRSA / NRS 402 / VISA, Staphylococcus aureus NRS402, MRSA/VISA DAP-NS): 1 µg/mL (≈ 2.96 µM)
- MIC (Staphylococcus aureus, MRSA / VISA, Staphylococcus aureus FDA-CDC AR-BANK# 0215, MRSA/VISA, read-out: MIC): 4 µg/mL (≈ 11.9 µM)
- MIC (Staphylococcus aureus, MRSA / VISA, Staphylococcus aureus FDA-CDC AR-BANK# 0216, MRSA/VISA, read-out: MIC): 2 µg/mL (≈ 5.93 µM)
- MIC (Staphylococcus aureus, MRSA / VISA, Staphylococcus aureus FDA-CDC AR-BANK# 0217, MRSA/VISA, read-out: MIC): 1 µg/mL (≈ 2.96 µM)
- MIC (Staphylococcus aureus, MRSA / VISA, Staphylococcus aureus FDA-CDC AR-BANK# 0218, MRSA/VISA Mupirocin-R, read-out: MIC): 1 µg/mL (≈ 2.96 µM)
- MIC (Staphylococcus aureus, MRSA / VISA, Staphylococcus aureus FDA-CDC AR-BANK# 0219, MRSA/VISA, read-out: MIC): 2 µg/mL (≈ 5.93 µM)
- MIC (Staphylococcus aureus, MRSA / VISA, Staphylococcus aureus FDA-CDC AR-BANK# 0220, MRSA/VISA, read-out: MIC): 2 µg/mL (≈ 5.93 µM)
- MIC (Staphylococcus aureus, MRSA / VISA, Staphylococcus aureus FDA-CDC AR-BANK# 0221, MRSA/VISA, read-out: MIC): 2 µg/mL (≈ 5.93 µM)
- MIC (Staphylococcus aureus, MRSA / VISA, Staphylococcus aureus FDA-CDC AR-BANK# 0223, MRSA/VISA, read-out: MIC): 2 µg/mL (≈ 5.93 µM)
- MIC (Staphylococcus aureus, MRSA / VISA, Staphylococcus aureus FDA-CDC AR-BANK# 0224, MRSA/VISA Mupirocin-R, read-out: MIC): 4 µg/mL (≈ 11.9 µM)
- MIC (Staphylococcus aureus, MRSA / VISA, Staphylococcus aureus FDA-CDC AR-BANK# 0225, MRSA/VISA, read-out: MIC): 2 µg/mL (≈ 5.93 µM)
- MIC (Staphylococcus aureus, MRSA / VISA, Staphylococcus aureus FDA-CDC AR-BANK# 0226, MRSA/VISA, read-out: MIC): 2 µg/mL (≈ 5.93 µM)
- MIC (Staphylococcus aureus, MRSA / VISA, Staphylococcus aureus FDA-CDC AR-BANK# 0227, MRSA/VISA, read-out: MIC): 4 µg/mL (≈ 11.9 µM)
- MIC (Staphylococcus aureus, MRSA / VISA, Staphylococcus aureus FDA-CDC AR-BANK# 0228, MRSA/VISA Mupirocin-R, read-out: MIC): 2 µg/mL (≈ 5.93 µM)
- MIC (Staphylococcus aureus, MRSA / VRSA, Staphylococcus aureus VRS1, VanA MRSA/VRSA, read-out: MIC): 2 µg/mL (≈ 5.93 µM)
- MIC (Staphylococcus aureus, MRSA / VRSA, Staphylococcus aureus VRS2, VanA MRSA/VRSA, read-out: MIC): 2 µg/mL (≈ 5.93 µM)
- MIC (Staphylococcus aureus, MRSA / VRSA, Staphylococcus aureus VRS3a, VanA MRSA/VRSA, read-out: MIC): 4 µg/mL (≈ 11.9 µM)
- MIC (Staphylococcus aureus, MRSA / VRSA, Staphylococcus aureus VRS11b, VanA MRSA/VRSA, read-out: MIC): 2 µg/mL (≈ 5.93 µM)
- MIC (Staphylococcus aureus, MRSA, Staphylococcus aureus ECL 2963666, MRSA DAP-NS, read-out: MIC): 1 µg/mL (≈ 2.96 µM)
- MIC (Staphylococcus aureus, NRS 12 / VISA, Staphylococcus aureus NRS12, VISA, read-out: MIC): 4 µg/mL (≈ 11.9 µM)
- MIC (Staphylococcus aureus, VISA, Staphylococcus aureus FDA-CDC AR-BANK# 0222, VISA, read-out: MIC): 2 µg/mL (≈ 5.93 µM)
- MIC (Staphylococcus aureus, VRSA, Staphylococcus aureus ECL 2963646, VRSA, read-out: MIC): 2 µg/mL (≈ 5.93 µM)
- MIC (Staphylococcus epidermidis, NRS7, Staphylococcus epidermidis NRS7, VISE, read-out: MIC): 4 µg/mL (≈ 11.9 µM)
- MIC (Staphylococcus epidermidis, NRS8, Staphylococcus epidermidis NRS8, VISE, read-out: MIC): 2 µg/mL (≈ 5.93 µM)
- MIC (Staphylococcus epidermidis, NRS60, Staphylococcus epidermidis NRS60, VISE, read-out: MIC): 2 µg/mL (≈ 5.93 µM)
